These results are taken from patent US12215118B2, “Quinone methide analog signal amplification” (Ventana Medical Systems, Inc., priority 2014, dated 2025).

Data set [1] can be described thus: Accelerated stability study in Buffer A (50/50 DMSO and 10 mM glycine buffer pH 2.0). Format: physicochemical. The settings on record: 20-25 °C. Here is the method: With an understanding of the degradation pathways and characteristics, a solvent system was designed for the purpose of extending shelf-life of QMP compounds. […] At elevated temperature the degradation pathway described in FIG. 3C was still observed. However, at normal storage conditions (2-25° C.) the rate of decomposition of the QMP is reduced compared to 100% aqueous systems.

Data set [2] relates to BCL6 on FFPE tonsil tissue. Put plainly: AP-based CARD IHC with biotinylated QM precursor followed by DAB detection. Here is the method: Detection 1—HRP DAB. After incubating with the AP conjugate the slides were washed with Special Stains wash (VMSI #860-015). QMP reagents were dissolved in 100 mM CHES (3-cyclo-hexylamino-ethylsulfonic acid), pH 10.0, 0.05% Brij-35. QMP turnover was achieved by adding 100 μL of AP Enhancer (VMSI #253-2182) followed by 100 μL of hapten labeled QMP and incubating at 37° C. for 16 minutes. Compound 29 is an exemplary hapten-QMP that could be used according to this method. The deposited hapten was subsequently bound by a mouse-anti-hapten-HRP conjugate (or streptavidin-HRP) (37° C.; 8 minutes), and visualized via a brown precipitate produced by HRP upon the addition of hydrogen peroxide and DAB (37° C.; 8 minutes). The DAB was toned by the addition of copper sulfate (37° C.; 4 minutes). The stained tissue sections were counterstained with modified Mayer's hematoxylin (Hematoxylin II, VMSI #790-2208) (37° C.; 4 minutes) and then incubated with Bluing Reagent (VMSI #760-2037) (37° C.; 4 minutes). The slides were then dehydrated through a graded ethanol series, cleared with xylene, and manually cover-slipped.
Both compounds utilize fluoride as the leaving group, but the reactivity of the QM derived from difluoro compound 58 should be considerably lower than monofluoro 7 due to the electronic stabilization offered by the geminal fluorine atom. […] Therefore, the difluoro QM precursor compound 58 was evaluated first for IHC staining performance on FFPE tissue using the nuclear marker BCL6 on FFPE tonsil tissue as a model system. The biotin-labeled difluoro QM precursor successfully bound to the sample as evidenced by subsequent biotin visualization using diaminobenzidine (DAB) detection. FIG. 18 provides microphotographs illustrating the detection level at varying concentrations of the difluoro QM precursor in a Tris buffer at pH=8.5 (panel A—DAB control, panel B—1 μM, panel C—10 μM and panel D—20 μM). In addition, significant amplification of signal was observed compared to the DAB control sample when on-slide concentrations of difluoro QM precursor compound 58 greater than […] were utilized.
To test the effect of pH on signal diffusion, difluoro QM precursor compound 58 was deposited as before at various pH levels within the working range for AP (7-12 with two shoulders of maximal activity at pH=8.5 and 11). The nuclear marker BCL6 on FFPE tonsil tissue was again chosen as the model. Positive staining was observed across the entire pH range, although a balance between overall signal and diffusion was seen. FIG. 19, panels A-H provide microphotographs of the detection levels of 20 µM QM precursor in Tris buffer with varying pH: panel A—DAB control; panel B pH=7.0; panel C pH=8.0; panel D pH=8.5; panel E pH=9.0; panel F pH=10.0; panel G pH=11.0; panel H pH=12.0. The diffusion appears to decrease with increasing pH. […] The level of amplification increased only as the pH rose to 8.5 and then decreased gradually over the rest of the range. This effect may be due to a combination of enzyme activity and the population of QM quenchers in the reaction media. At pH levels well below the optimal AP reaction conditions (7.0), the activity of AP was depressed, resulting in low signal. As the pH increased (8.0-8.5) but remained near the pKa of Tris (8.1), the activity of AP increased at a faster rate than the population of quenchers in the reaction media, leading to a significant increase in signal. Raising the pH further (9-10) increased the quencher population while decreasing AP activity, resulting in a decrease of signal. Although AP had maximal activity at pH 11 in Tris, a slight decrease in staining intensity was observed, most likely due to the excessively high population of quenchers that could not be overcome by the increased AP activity (raising the pH from 8.5 to 11 increases [Tris base] about 50%, with AP activity increasing by only about 20%). […]

Data set [3] deals with Ki67 on FFPE tonsil tissue. The experiment in a line: HRP DAB amplified by QMP-biotin with various leaving groups. The settings on record: CHES pH 10.0, ultraView DAB control; for staining intensity and signal diffusion compared to the control slide: quaternary amine leaving groups, 100 μM; for signal resolution and intensity compared to the control slide: monofluoro 400 nM, acetate and methoxy 100 μM. As for the experimental part: (b) Quinone methide analog precursor amplified DAB (FIGS. 21(B)-(D)). The tissue was deparaffinized and retrieved as described in the general procedures. Rabbit-anti-Ki-67 antibody incubation (37° C., 16 minutes) and washing were followed by secondary antibody incubation with a goat polyclonal anti-rabbit antibody conjugated to AP (37° C.; 12 minutes). After incubating with the AP conjugate the slides were washed with Special Stains wash. Pyridine QMP-biotin (100 μM) (FIG. 21(B)) or DABCO QMP-biotin (100 μM) (FIG. 21(C)) or triethylamine QMP-biotin (100 μM) (FIG. 21(D)) was dissolved in 100 mM CHES, pH 10.0, 0.05% Brij-35 to a final concentration of 100 nM. QMP turnover was achieved by adding 100 μL of AP Enhancer followed by 100 μL of biotin labeled QMP and incubating at 37° C. for 16 minutes. The deposited hapten was subsequently bound by streptavidin-HRP conjugate (37° C.; 8 minutes), and visualized via a brown precipitate produced by HRP upon the addition of hydrogen peroxide and DAB (37° C.; 8 minutes). The DAB was toned by the addition of copper sulfate (37° C.; 4 minutes). The stained tissue sections were counterstained with modified Mayer's hematoxylin (37° C.; 4 minutes) and then incubated with Bluing Reagent (37° C.; 4 minutes). They were then dehydrated through a graded ethanol series, cleared with xylene, and manually cover-slipped.
(b) QMP amplified DAB (FIGS. 22(B)-22(D)). The tissue was deparaffinized and retrieved as described in the general procedures. Rabbit-anti-Ki-67 antibody incubation (37° C., 16 minutes) and washing were followed by secondary antibody incubation with a goat polyclonal anti-rabbit antibody conjugated to AP (37° C.; 12 minutes). After incubating with the AP conjugate the slides were washed with Special Stains wash. Monofluoro QMP-biotin (400 nM) (FIG. 22(B)) or acetate QMP-biotin (100 μM) (FIG. 22(C)) or methoxy QMP-biotin (100 μM) (FIG. 22(D)) was dissolved in 100 mM CHES, pH 10.0, 0.05% Brij-35 to a final concentration of 100 nM. QMP turnover was achieved by adding 100 μL of AP Enhancer followed by 100 μL of biotin labeled QMP and incubating at 37° C. for 16 minutes. The deposited biotin was subsequently bound by a streptavidin-HRP conjugate (37° C.; 8 minutes), and visualized via a brown precipitate produced by HRP upon the addition of hydrogen peroxide and DAB (37° C.; 8 minutes). The DAB was toned by the addition of copper sulfate (37° C.; 4 minutes). The stained tissue sections were counterstained with modified Mayer's hematoxylin (37° C.; 4 minutes) and then incubated with Bluing Reagent (37° C.; 4 minutes). They were then dehydrated through a graded ethanol series, cleared with xylene, and manually cover-slipped.

Turning to `CN(C)c1ccc(N=Nc2ccc(S(=O)(=O)NCCOCCOCCOCCOCCOCCOCCOCCOCCC(=O)NCCCCCCNC(=O)C(F)c3ccccc3OP(=O)(O)O)cc2)cc1` (stereo not shown) [28(C)], the QMP remaining in data set [1] (0.0 days), in data set [1] (1.0 days), in data set [1] (4.0 days), in data set [1] (8.0 days), in data set [1] (10.0 days) and in data set [1] (14.0 days) was 100% throughout. In addition, the figures for the QMP remaining in data set [1] (17.0 days), in data set [1] (25.0 days) and in data set [1] (36.0 days) were 100%, 97.8% and 96.7%, respectively.

On to `CN1/C(=C/C=C/C=C/C2=[N+](CCCCCC(=O)NCCCCCCNC(=O)C(F)c3ccccc3OP(=O)(O)O)c3ccccc3C2(C)C)C(C)(C)c2ccccc21.[Cl-]` (stereo not shown) [28(D)], for which the QMP remaining came out at 99.9% in data set [1] (0.0 days); 99.8% in data set [1] (1.0 days); 95.4% in data set [1] (4.0 days); 95.6% in data set [1] (8.0 days); 95.7% in data set [1] (10.0 days); 95.1% in data set [1] (14.0 days). Besides, the QMP remaining came out at 95.8% in data set [1] (17.0 days), 95.5% in data set [1] (25.0 days) and 94% in data set [1] (36.0 days).

Turning to `O=C(CCCCC1SCC2NC(=O)NC21)NCCCCCC(=O)Nc1ccc(OP(=O)(O)O)c(C(F)F)c1` (stereo not shown) [Compound 58], the “diffusion at the upper end of the pH range” value in data set [2] (Tris buffer, pH 7-12) was “still too great to be of clinical use for IHC”. Besides, the “on-slide concentration at which significant amplification of signal was observed compared to the DAB control” value in data set [2] (Tris buffer, pH=8.5) is reported as “greater than 20 μM”. Moreover, the “diffusion of signal, off-target staining” value in data set [2] (Tris buffer, pH=8.5, 1-20 μM, all cases) was “increased diffusion of signal”. In addition, the “concentration required to give the desired level of amplification” value in data set [2] (pH 8.5 in Tris buffer) amounted to 20 µM.

As to `O=C(CCCCC1SCC2NC(=O)NC21)NCCCCCC(=O)Nc1ccc(OP(=O)(O)O)c(C[N+]23CCN(CC2)CC3)c1` (stereo not shown) [DABCO QMP-biotin, 1-(5-(6-(5-(2-oxohexahydro-1H-thieno[3,4-d]imidazol-4-yl)pentanamido)hexanamido)-2-(phosphonooxy)benzyl)-1,4-diazabicyclo[2.2.2]octan-1-ium], the “staining intensity and signal diffusion compared to the control slide” value in data set [3] is “much lower staining intensity and greatly diffuse signals”.

`O=C(CCCCC1SCC2NC(=O)NC21)NCCCCCC(=O)Nc1ccc(OP(=O)(O)O)c(CF)c1` (stereo not shown) [Monofluoro QMP-biotin]: the “signal resolution and intensity compared to the control slide” value in data set [3] is given as “well resolved signal with greater or equal intensity to the control slide”.

`CC(=O)OCc1cc(NC(=O)CCCCCNC(=O)CCCCC2SCC3NC(=O)NC32)ccc1OP(=O)(O)O` (stereo not shown) [acetate QMP-biotin, 5-(6-(5-(2-oxohexahydro-1H-thieno[3,4-d]imidazol-4-yl)pentanamido)hexanamido)-2-(phosphonooxy)benzyl acetate]: in data set [3], the “signal resolution and intensity compared to the control slide” value is listed as “weak, very diffuse signal”.

Turning to `COCc1cc(NC(=O)CCCCCNC(=O)CCCCC2SCC3NC(=O)NC32)ccc1OP(=O)(O)O` (stereo not shown) [methoxy QMP-biotin, 2-(methoxymethyl)-4-(6-(5-(2-oxohexahydro-1H-thieno[3,4-d]imidazol-4-yl)pentanamido)hexanamido)phenyl dihydrogen phosphate], the “signal resolution and intensity compared to the control slide” value in data set [3] is recorded as “well resolved signal but with low intensity”.

Turning to `O=C(CCCCC1SCC2NC(=O)NC21)NCCCCCC(=O)Nc1ccc(OP(=O)(O)O)c(C[n+]2ccccc2)c1` (stereo not shown) [pyridine QMP-biotin, 1-(5-(6-(5-(2-oxohexahydro-1H-thieno[3,4-d]imidazol-4-yl)pentanamido)hexanamido)-2-(phosphonooxy)benzyl)pyridin-1-ium], in data set [3], the “staining intensity and signal diffusion compared to the control slide” value is “much lower staining intensity and greatly diffuse signals”.

Turning to `CC[N+](CC)(CC)Cc1cc(NC(=O)CCCCCNC(=O)CCCCC2SCC3NC(=O)NC32)ccc1OP(=O)(O)O` (stereo not shown) [triethylamine QMP-biotin, N,N-diethyl-N-(5-(6-(5-(2-oxohexahydro-1H-thieno[3,4-d]imidazol-4-yl)pentanamido)hexanamido)-2-(phosphonooxy)benzyl)ethanaminium], the “staining intensity and signal diffusion compared to the control slide” value in data set [3] was “much lower staining intensity and greatly diffuse signals”.
